According to ChEMBL document CHEMBL1201862, “PubChem BioAssay data set” (2004):
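These data come from cells grown in 96-well plates and exposed to compound for 48 hours at five concentrations. GI50 is the concentration that inhibits growth by half.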 Activity calls are given as the source filed them. No stated cut-off is given here; in the data, active = GI50 up to about 1.1 µM and inactive = higher.

Columns and labels:
Assay in all cases: NCI-60 cell line screen, 48 h
[1] = tested on: CCRF-CEM
[2] = tested on: NCI-H23
[3] = tested on: KM12
[4] = tested on: NCI-H522
[5] = tested on: COLO 205
[6] = tested on: ACHN
[7] = tested on: UACC-257
[8] = tested on: SNB-19
[9] = tested on: M14
[10] = tested on: SK-MEL-5
[11] = tested on: MOLT-4
[12] = tested on: SNB-75
[13] = tested on: EKVX
[14] = tested on: MCF7
[15] = tested on: SF-295
[16] = tested on: UACC-62
[17] = tested on: HCC 2998
[18] = tested on: NCI/ADR-RES
[19] = tested on: HOP-62
[20] = tested on: HOP-92

Measured: GI50

C=CCN(CCNS(=O)(=O)c1ccc(C)cc1)S(=O)(=O)c1ccc(C)cc1
inactive: [1] > 55 µM | [2] > 50.1 µM | [3] 57.8 µM | [4] 12.9 µM | [5] > 44.5 µM | [6] 13.6 µM | [7] 8.02 µM | [8] > 76.6 µM | [9] 14 µM | [10] 6.17 µM | [11] > 45.7 µM | [12] 15.1 µM | [13] 31.9 µM | [14] > 51.9 µM | [15] 14 µM | [16] 73.6 µM | [17] > 69.5 µM | [18] > 60.5 µM | [19] 27.9 µM | [20] > 69.3 µM

O=C(NCCc1ccccn1)c1ccc2cc(C(=O)N3CC(CCl)c4ccc([N+](=O)[O-])cc43)[nH]c2c1 (stereo not given)
inactive: [1] > 100 µM | [2] 45.3 µM | [3] > 100 µM | [4] 9.82 µM | [5] > 100 µM | [6] 36.6 µM | [7] > 46.3 µM | [8] 12.1 µM | [9] > 100 µM | [10] > 61.5 µM | [11] > 100 µM | [12] 18.8 µM | [13] 47.4 µM | [14] > 67.9 µM | [15] > 35.3 µM | [16] 8.99 µM | [17] 61.5 µM | [18] 26.1 µM | [19] 13.2 µM | [20] 9.46 µM

CCOC(=O)NC(Nc1cccc(C(F)(F)F)c1)(C(F)(F)F)C(F)(F)F
inactive: [1] > 100 µM | [2] > 100 µM | [3] > 100 µM | [4] > 100 µM | [5] > 100 µM | [6] > 100 µM | [7] > 100 µM | [8] > 100 µM | [9] > 100 µM | [10] > 100 µM | [11] > 100 µM | [12] > 100 µM | [13] > 100 µM | [14] > 100 µM | [15] > 100 µM | [16] > 100 µM | [17] > 100 µM | [18] > 100 µM | [19] > 100 µM | [20] > 100 µM
